What was measured:
[1] = tested on: cytochrome P450s (CYPs); test: Inhibition of xanthotoxol metabolite production in HLMs by a nonspecific CYP inhibitor; format: in vitro ADME, human; settings: xanthotoxol as substrate, 500 μM ABT
Experimental: Inhibition study was conducted using the above incubation system consisting of liver microsomes, NADPH-generating system, probe substrate at the concentration of about K m value, and xanthotoxol (or the control inhibitor). The concentrations of positive inhibitors used were as follows: 10 μM furafylline for CYP1A2, 2.5 μM 8-methoxypsoralen for CYP2A6, 10 μM quercetin for CYP2C8, 10 μM sulfaphenazole for CYP2C9, 10 μM quinidine for CYP2D6, 50 μM clomethiazole for CYP2E1, 20 μM omeprazole for CYP2C19, 1 μM ketoconazole for CYP3A4, and 500 μM ABT for broad CYP450s. […]

[2] = target: T1, CYP2E1 (Homo sapiens, UniProt P05181); format: in vitro ADME; settings: 100 μM, pH 7.4
T1 construct: The HLMs were prepared from eleven individual human donor livers; tissue Research Institute for Liver Disease Co. (Shanghai, China); host or cells: human liver microsomes, pool of eleven donors
Experimental: (§1) Liver microsomes from human (HLMs) used in this study were provided by the Research Institute for Liver Disease Co. (Shanghai, China). The HLMs were prepared from eleven individual human donor livers. Protein concentration and microsomes activities of CYP2C19, CYP2A6, CYP2C8, CYP2D6, CYP1A2, CYP2C9, CYP2E1, and CYP3A4 had been previously characterized by the Research Institute for Liver Disease Co.
(§2) HLMs phenacetin o-deethylation, coumarin 7-hydroxylation, paclitaxel 6α-hydroxylation, diclofenac 4′-hydroxylation, dextromethorphan o-demethylation, chlorzoxazone 6-hydroxylation, testosterone 6β-hydroxylation, and S-mephenytoin 4′-hydroxylation activities were utilized as selective markers for CYP1A2, CYP2A6, CYP2C8, CYP2C9, CYP2D6, CYP2E1, CYP3A4, and CYP2C19.
(§3) The optimal conditions for microsomal incubation were described previously. The incubation mixture, with a total volume of 200 μL, consisted of 100 mM potassium phosphate buffer (pH 7.4), an NADPH-generating system (10 mM glucose 6-phosphate, 1 unit/mL of glucose 6-phosphate dehydrogenase, and 4 mM MgCl2), liver microsomes (0.3 mg/mL), or recombinant CYP450s (15 nM). […] After a 5 min preincubation at 37°C, the NADP^+ (1 mM, 20 μL) was added into the mixture to initiate the reaction. The reaction was terminated by the addition of methanol (200 μL) with internal standard. The mixture was kept on ice until it was centrifuged at 20 000 ×g for 10 min at 4°C. Aliquots of supernatants were stored at −40°C until analysis. Control incubations without NADPH or without substrate or without microsomes were carried out to ensure that the formation of metabolites was microsomes and NADPH dependent. All incubations throughout the study were carried out in at least three independent experiments with standard deviations (SD) generally below 10%.
(§4) Inhibition study was conducted using the above incubation system consisting of liver microsomes, NADPH-generating system, probe substrate at the concentration of about K m value, and xanthotoxol (or the control inhibitor). […]

[3] = target: T2, CYP2A6 (Homo sapiens, UniProt P11509); format: in vitro ADME; settings: 100 μM, pH 7.4
T2 construct: The HLMs were prepared from eleven individual human donor livers; tissue Research Institute for Liver Disease Co. (Shanghai, China); host or cells: human liver microsomes, pool of eleven donors
T2 sequence (P11509 1-494): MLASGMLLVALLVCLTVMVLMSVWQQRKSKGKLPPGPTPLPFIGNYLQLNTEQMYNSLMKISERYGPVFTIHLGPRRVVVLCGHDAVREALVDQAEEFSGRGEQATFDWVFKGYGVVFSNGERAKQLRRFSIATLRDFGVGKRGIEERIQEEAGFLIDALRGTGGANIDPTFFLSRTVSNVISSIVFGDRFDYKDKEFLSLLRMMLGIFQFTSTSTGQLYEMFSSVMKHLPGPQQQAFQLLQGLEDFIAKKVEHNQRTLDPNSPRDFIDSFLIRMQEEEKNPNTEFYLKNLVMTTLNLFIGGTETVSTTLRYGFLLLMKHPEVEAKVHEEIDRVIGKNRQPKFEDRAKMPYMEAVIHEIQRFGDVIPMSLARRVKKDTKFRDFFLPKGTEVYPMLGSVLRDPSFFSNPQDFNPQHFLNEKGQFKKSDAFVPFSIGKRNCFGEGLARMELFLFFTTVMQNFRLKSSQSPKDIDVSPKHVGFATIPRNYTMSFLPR
Experimental: as §1, §2, §3, §4

[4] = target: T3, CYP2C8 (Homo sapiens, UniProt P10632); format: in vitro ADME; settings: 100 μM, pH 7.4
T3 construct: The HLMs were prepared from eleven individual human donor livers; tissue Research Institute for Liver Disease Co. (Shanghai, China); host or cells: human liver microsomes, pool of eleven donors
T3 sequence (P10632 1-490): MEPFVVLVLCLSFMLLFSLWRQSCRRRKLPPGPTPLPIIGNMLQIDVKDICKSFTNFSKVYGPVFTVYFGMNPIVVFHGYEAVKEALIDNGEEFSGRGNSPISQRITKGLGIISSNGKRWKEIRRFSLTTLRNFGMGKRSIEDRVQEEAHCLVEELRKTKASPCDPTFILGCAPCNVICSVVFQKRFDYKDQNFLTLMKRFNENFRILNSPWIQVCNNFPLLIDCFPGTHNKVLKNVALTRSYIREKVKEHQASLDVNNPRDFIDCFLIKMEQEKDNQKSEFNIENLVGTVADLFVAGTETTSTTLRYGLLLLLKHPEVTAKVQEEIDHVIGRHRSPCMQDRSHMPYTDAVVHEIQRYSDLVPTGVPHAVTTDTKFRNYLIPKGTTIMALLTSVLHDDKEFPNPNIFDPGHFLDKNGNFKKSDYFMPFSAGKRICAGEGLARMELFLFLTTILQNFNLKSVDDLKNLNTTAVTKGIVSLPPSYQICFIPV
Experimental: as §1, §2, §3, §4

[5] = format: in vitro ADME; settings: human
From the text: The following equations were used to predict the xanthotoxol clearance in human:(2) CLint in vitro=Vmax/Km,CLint in vivo=CLint in vitro·SF,CLH=QH·fu·CLint in vivo/QH+fu·CLint in vivo, where SF (scaling factor) represents the milligrams of microsomal protein per gram of liver multiplied by the grams of liver weight; CLint is the intrinsic metabolic clearance; CLH is hepatic clearance; f u is the free fraction in blood (there are no data of xanthotoxol; here f u was arbitrarily proposed to be 1); Q H is the hepatic blood flow. The hepatic clearance of xanthotoxol was calculated using (2), and physiological parameters in human were described as follows: microsomal protein per gram of liver, liver weight per kilogram of body, and liver blood flow for human were 48.8 mg, 25.7 g, and 20.7 mL·min^−1·kg^−1, respectively.

[6] = target: T4, CYP3A4 (Homo sapiens, UniProt P08684); test: Inhibition of testosterone 6β-hydroxylation in human liver microsomes; format: in vitro ADME
T4 construct: The HLMs were prepared from eleven individual human donor livers; tissue Research Institute for Liver Disease Co. (Shanghai, China); host or cells: human liver microsomes, pool of eleven donors
Experimental: as §1, §2, §3, §4

[7] = in vitro; format: in vitro ADME; settings: human
Experimental: as §3
To estimate kinetic parameters of xanthotoxol and make sure that the formations of metabolites were in the linear range of both reaction time and the concentration of microsomes, xanthotoxol (0.25–200 μM) was incubated with pooled HLMs for 30 min. Reaction velocities and substrate concentrations were used to calculate the apparent K m and V max values according to nonlinear regression from the Michaelis-Menten equation (see (1)). CLint was calculated as V max/K m. In addition, the result was graphically represented on Eadie-Hofstee plots (velocities versus ratios of velocities to substrate concentrations) to determine whether the metabolism was monophasic or biphasic. Consider(1) V=Vmax·S/Km+S, where V max was the maximum reaction velocity, K m was the Michaelis constant that represented the substrate concentration at which the velocity was half of V max, V was the reaction velocity, and [S] was the substrate concentration.

[8] = target: T5, CYP1A2 (Homo sapiens, UniProt P05177); test: Inhibition of phenacetin o-deethylation in human liver microsomes; format: in vitro ADME
T5 construct: The HLMs were prepared from eleven individual human donor livers; tissue Research Institute for Liver Disease Co. (Shanghai, China); host or cells: human liver microsomes, pool of eleven donors
T5 sequence (P05177 1-516): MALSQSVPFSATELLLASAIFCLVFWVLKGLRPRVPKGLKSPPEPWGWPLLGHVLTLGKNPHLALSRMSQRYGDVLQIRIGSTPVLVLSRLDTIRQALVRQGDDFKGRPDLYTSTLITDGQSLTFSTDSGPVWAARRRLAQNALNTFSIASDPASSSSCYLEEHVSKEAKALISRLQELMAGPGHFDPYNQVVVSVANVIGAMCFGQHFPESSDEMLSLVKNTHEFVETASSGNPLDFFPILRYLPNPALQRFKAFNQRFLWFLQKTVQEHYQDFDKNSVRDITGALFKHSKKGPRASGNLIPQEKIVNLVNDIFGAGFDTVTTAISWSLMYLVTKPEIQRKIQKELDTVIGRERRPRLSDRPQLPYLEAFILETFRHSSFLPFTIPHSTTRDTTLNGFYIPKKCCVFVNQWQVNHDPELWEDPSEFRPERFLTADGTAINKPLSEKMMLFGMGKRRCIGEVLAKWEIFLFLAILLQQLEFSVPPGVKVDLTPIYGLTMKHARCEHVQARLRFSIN
Experimental: as §1, §2, §3, §4

[9] = target: T1, CYP2E1; format: in vitro ADME; settings: recombinant enzyme, 30 min, 10 mM, pH 7.4
Experimental: as §3
The enzymes involved in the xanthotoxol metabolism were investigated using cDNA-expressed human P450 isoforms including CYP3A4, CYP2D6, CYP2E1, CYP2C9, CYP2C19, and CYP1A2. The incubation for each isoenzyme was carried out as described for the liver microsomal study. […]

[10] = HLMs, Lineweaver-Burk and Dixon plots

T4 sequence (P08684 whole entry): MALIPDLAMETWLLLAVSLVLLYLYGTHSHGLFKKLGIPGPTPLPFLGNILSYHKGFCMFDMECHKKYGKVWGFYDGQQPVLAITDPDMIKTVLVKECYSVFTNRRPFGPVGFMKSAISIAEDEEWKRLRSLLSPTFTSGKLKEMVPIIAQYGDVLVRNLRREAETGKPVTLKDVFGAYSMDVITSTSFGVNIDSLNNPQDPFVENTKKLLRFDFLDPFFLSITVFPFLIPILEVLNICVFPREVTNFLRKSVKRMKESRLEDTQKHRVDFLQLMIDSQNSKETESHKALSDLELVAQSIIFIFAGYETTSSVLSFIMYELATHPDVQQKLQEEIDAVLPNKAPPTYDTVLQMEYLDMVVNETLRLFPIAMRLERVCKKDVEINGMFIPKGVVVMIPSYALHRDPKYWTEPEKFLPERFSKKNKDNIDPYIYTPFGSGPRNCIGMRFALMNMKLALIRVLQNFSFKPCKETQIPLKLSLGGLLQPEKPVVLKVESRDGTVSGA
T1 sequence (P05181 whole entry): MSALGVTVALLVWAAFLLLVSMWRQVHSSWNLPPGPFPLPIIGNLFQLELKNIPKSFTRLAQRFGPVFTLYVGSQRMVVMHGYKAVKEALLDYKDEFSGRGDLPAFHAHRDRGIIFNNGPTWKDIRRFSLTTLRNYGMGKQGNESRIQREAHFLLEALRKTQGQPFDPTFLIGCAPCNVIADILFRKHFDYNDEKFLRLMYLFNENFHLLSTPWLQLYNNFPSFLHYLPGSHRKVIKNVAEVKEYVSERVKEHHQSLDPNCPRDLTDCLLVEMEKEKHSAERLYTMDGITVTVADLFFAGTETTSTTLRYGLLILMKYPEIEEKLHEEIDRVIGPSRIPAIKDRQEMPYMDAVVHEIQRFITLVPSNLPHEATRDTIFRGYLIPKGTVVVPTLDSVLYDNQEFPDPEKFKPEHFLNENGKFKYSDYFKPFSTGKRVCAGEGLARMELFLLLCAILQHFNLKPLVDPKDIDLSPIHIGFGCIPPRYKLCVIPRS

Row | SMILES | inhibition against metabolite production [1] | inhibited the activity of CYP2E1 [2] [%] | inhibited the activity of CYP2A6 [3] [%] | inhibited the activity of CYP2C8 [4] [%] | hepatic clearance (CLH) [5] | percentage of CLH versus hepatic blood flow (QH)% [5] [%] | clearance classification ([5]; microsomes) | IC50 [6] [µM] | Ki [6] [µM] | type of inhibition of CYP3A4 [6, 10] | Vmax of xanthotoxol metabolism ([7]; 30 min, pH 7.4) [nmol/min/mg] | Intrinsic clearance (CLint) ([7]; microsomes, pH 7.4) [µL/min/mg] | microsomal CLint ([7]; microsomes, pH 7.4, Intrinsic clearance (CLint)) [µL/min/mg] | Km at 30 min ([7]; pH 7.4) [µM] | IC50 [8] [µM] | Ki [8] [µM] | type of inhibition of CYP1A2 [8, 10] | amount of metabolite M generated compared to CYP1A2 level [9] [%]
1 | Nn1nnc2ccccc21 [Aminobenzotriazole (ABT), 1-aminobenzotriazole] | potent inhibition | – | – | – | – | – | – | – | – | – | – | – | – | – | – | – | – | –
2 | O=c1ccc2cc3ccoc3c(O)c2o1 [xanthotoxol, Xanthotoxol] | – | 25.9 | 82.1 | 52.1 | 15.91 mL·min^−1·kg^−1 body weight | 76.8 | high-clearance drug | 7.43 | 2.22 | noncompetitive | 0.55 | 65 | 60 | 8.46 | 27.8 | 21.1 | noncompetitive | 7.3

Source: PMC4806279, “Metabolism and Metabolic Inhibition of Xanthotoxol in Human Liver Microsomes” (Evidence-based Complementary and Alternative Medicine : eCAM, 2016)
